# Measured values: article PMC3433420 (PLoS ONE, 2012)
# Like-named read-outs stand apart in the source and are kept apart here. Residues, ends and D or L forms follow the SMILES beside them.
# Tests used:
# GRB7 SH2 domain = GRB7 SH2 domain (Homo sapiens, UniProt Q14451); assay: FP saturation binding assay
# PLCG1-C SH2 domain = molecular target: T1, PLCG1-C SH2 domain (Homo sapiens, UniProt P19174); assay: biochemical; format: binding; conditions: protein PLCG1-C; high-confidence ErbB interactions; mean of replicate hits
# T1 construct: The 6X His-tagged SH2 domain proteins used in the assay, PLCG1-C, SHC4, VAV2; thioredoxin; made in house; host or cells: E. coli BL21(DE3)pLysS
# T1 sequence (P19174 668-756 limits assumed): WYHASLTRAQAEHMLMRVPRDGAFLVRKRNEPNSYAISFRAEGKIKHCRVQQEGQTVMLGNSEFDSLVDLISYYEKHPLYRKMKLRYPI
# [1] = molecular target: PIK3R2-NC tandem SH2 domains (Homo sapiens, UniProt O00459); assay: FP saturation binding assay
# PIK3R2-NC tandem SH2 domains, sequence (O00459 330-716 limits assumed): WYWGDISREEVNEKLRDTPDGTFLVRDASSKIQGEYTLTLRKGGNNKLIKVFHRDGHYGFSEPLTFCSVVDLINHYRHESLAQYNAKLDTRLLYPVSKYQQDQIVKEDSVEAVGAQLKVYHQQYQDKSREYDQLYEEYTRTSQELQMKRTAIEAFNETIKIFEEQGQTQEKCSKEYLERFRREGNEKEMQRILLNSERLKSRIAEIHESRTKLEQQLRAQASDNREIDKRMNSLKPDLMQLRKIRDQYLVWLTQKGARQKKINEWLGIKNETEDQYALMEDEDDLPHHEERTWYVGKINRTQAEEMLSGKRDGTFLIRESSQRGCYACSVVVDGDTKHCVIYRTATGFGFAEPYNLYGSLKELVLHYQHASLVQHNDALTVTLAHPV
# [2] = tested on: 93 human SH2 domains and 2 phosphotyrosine binding (PTB) domains; assay: FP saturation binding assay, whole domain panel (protein named per line or not at all)
# Method: (See Figure 1A) Rhodamine-labeled peptides were dissolved in assay buffer (20 mM HEPES, 100 mM KCl, 0.1% Tween-20, 5 mM DTT, pH 7.8), diluted to a concentration of 20 nM, and plated into black 384-well plates (Corning, Corning, NY) at 5 µL/well using a Perkin Elmer EP3 pipetting workstation (V&P Scientific, Inc., San Diego, CA). SH2, PTB, and thioredoxin control proteins were plated into the first column of 2 mL 96-well plates (Corning) at a concentration of 20 µM and serially diluted 1∶2 into freezing buffer (300 mM NaCl, 50 mM Na2PO4, pH 8, 20% glycerol v/v) eleven times using a Tecan Freedom EVO 100 workstation (Tecan, Männedorf, Switzerland). For the interaction assay, 5 µL of each of the twelve protein concentrations was added to the peptide-containing 384-well plates via the EP3 resulting in a protein dilution range of 0.002–10 µM and a final volume of 10 µL; peptide concentration was fixed at 10 nM. Peptide/protein samples were incubated for 20 minutes at room temperature in the dark and fluorescence polarization (FP) was measured in an Analyst GT multimode reader (Molecular Devices, Sunnyvale, CA) with excitation and emission wavelengths of 530 nm and 555 nm, respectively. Experimental values were output as millipolarization (mP) units and imported into MATLAB (The MathWorks, Inc., Natick, MA) in which equation (1) was used to determine dissociation constants (KDs) for each protein/peptide pairing by least squares nonlinear regression. [drawing 1] (1)
# To scale up the number of interaction measurements while minimizing variation introduced by human intervention, we utilized an automated robotic platform (Figure 1A; see experimental procedures and Supplementary Methods) to transfer, incubate, and measure the fluorescence polarization (FP) induced from interactions of a titration series of SH2 domains with synthetic rhodamine-labeled ErbB phosphopeptides. Experimental values were output as millipolarization (mP) units and equation (1) was used to fit apparent midpoint dissociation constants (KDs) for each protein/peptide pair using non-linear regression (see experimental procedures).
# For this interaction analysis, we synthesized and queried the interaction of phosphopeptides corresponding to 89 of 92 ErbB family intracellular tyrosines with 93 SH2 domains. Because nine peptide sequences share 100% identity between the receptors in the 4 to 7 amino acids C-terminal to the phosphorylated tyrosine, our peptide set consisted of 81 phosphopeptides corresponding to the 89 unique tyrosine containing sequences (Table S2). This peptide set represents a 50% increase over the three PM studies performed to date. We were therefore able to obtain a more systematic and unbiased view of the relative SH2 domain recruitment potential of each receptor. Although most ErbB receptor auto-phosphorylation sites have been detected frequently by mass spectrometry because of their high relative modification stoichiometry, non-auto-phosphorylation sites have been reported less frequently in the literature (Table S3). We reasoned that many physiologically relevant and uncharacterized ErbB tyrosines of low phosphorylation stoichiometry may exist and that our comprehensive interaction analysis might implicate their importance in mediating physiological interactions. We tested the majority of interactions (7099/8160 (87.0%); Figure S3) three or more times and reported standard error for all interactions that were detected in at least three FP runs (Table S4). […] Analysis of this polarization data may be useful for inferring how SH2 proteins bind to different peptide sequences. Larger proteins and proteins binding closer to the N-terminal rhodamine tag of a given peptide would be expected to induce higher maximal polarization (the calculated maximal polarization value at infinite protein concentration) than proteins binding farther from the tag. In addition to phosphopeptides, we queried a representative set of 27 non-phosphopeptides against the entire domain set. […]
# SH2 and PTB domains = conditions: ref Kaushansky et al. Mol Biosys 2008, cited from earlier work
# Text: Supplement pone.0044471.s022.xlsx, sheet "Most recent PM interactions" | column: Kd || Supplement pone.0044471.s022.xlsx, sheet "All original PM interactions" | column: Kd
# GRB7 SH2 domain, sequence (Q14451 431-527 limits assumed): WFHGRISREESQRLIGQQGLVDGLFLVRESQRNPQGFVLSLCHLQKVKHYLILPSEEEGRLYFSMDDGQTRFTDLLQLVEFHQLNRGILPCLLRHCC
compound,measurement,setting,value
CSCC[C@H](NC(=O)[C@H](Cc1ccc(O)cc1)NC(=O)[C@H](CCC(=O)O)NC(=O)[C@H](Cc1ccc(OP(=O)(O)O)cc1)NC(=O)[C@H](CCC(=O)O)NC(=O)[C@H](CCC(=O)O)NC(=O)[C@H](CC(=O)O)NC(=O)[C@@H](N)CCC(=O)O)C(=O)N[C@@H](CC(N)=O)C(=O)N[C@@H](CCCNC(=N)N)C(=O)N[C@@H](CCCNC(=N)N)C(=O)N[C@@H](CCCNC(=N)N)C(=O)N[C@@H](CC(=O)O)C(=O)O [ErbB3 pY1197] (HELM PEPTIDE1{E.D.E.E.[O=C([C@H](Cc1ccc(OP(=O)(O)O)cc1)N[*:1])[*:2]].E.Y.M.N.R.R.R.D}$$$$V2.0),Kd,"GRB7 SH2 domain; KD for GRB7, FP saturation assay",≤ 100 nM
CC(C)C[C@H](NC(=O)[C@H](Cc1ccc(OP(=O)(O)O)cc1)NC(=O)[C@H](CC(C)C)NC(=O)[C@@H]1CCCN1C(=O)[C@H](CCC(=O)O)NC(=O)[C@@H](N)CC(N)=O)C(=O)N[C@@H](CC(N)=O)C(=O)N[C@H](C(=O)N[C@@H](Cc1ccccc1)C(=O)N[C@@H](C)C(=O)N[C@@H](CC(N)=O)C(=O)N[C@H](C(=O)N[C@@H](CC(=O)O)C(=O)O)[C@@H](C)O)[C@@H](C)O [ErbB4 1208 13-mer] (HELM PEPTIDE1{N.E.P.L.[O=C([C@H](Cc1ccc(OP(=O)(O)O)cc1)N[*:1])[*:2]].L.N.T.F.A.N.T.D}$$$$V2.0),Kd,PLCG1-C SH2 domain,5110 nM
same,Kd,"GRB7 SH2 domain; Mean KD, protein GRB7, high-confidence ErbB interactions, mean of replicate hits",8960 nM
same,Kd,[1],11300 nM
"IGSQpYLLNWCVQd [ErbB1 pY813, N-terminally rhodamine-labeled 13-mer phosphopeptide]",interaction with the SH2/PTB domain panel,[2]; KD <= 20 µM counted as interaction,reproducibly interacted at high affinity with many SH2 domains
same,SH2 domains found to interact,"[2]; high-confidence interactions (Table S11, Figure S14)",interacted with tensin family SH2 domains
same,Kd,SH2 and PTB domains; protein ABL2,200 nM
same,Kd,SH2 and PTB domains; protein GRB10,350 nM
same,Kd,SH2 and PTB domains; protein ITK,310 nM
same,Kd,SH2 and PTB domains; protein NCK2,200 nM
same,Kd,SH2 and PTB domains; protein PIK3R1-C,1850 nM
same,Kd,SH2 and PTB domains; protein PIK3R1-NC,1820 nM
same,Kd,SH2 and PTB domains; protein PIK3R3-NC,1870 nM
same,Kd,SH2 and PTB domains; protein RASA1-C,1950 nM
same,Kd,SH2 and PTB domains; protein RASA1-NC,160 nM
same,Kd,SH2 and PTB domains; protein SH2D1B,1600 nM
same,Kd,SH2 and PTB domains; protein SH2D3C,50 nM
same,Kd,SH2 and PTB domains; protein SHB,280 nM
same,Kd,SH2 and PTB domains; protein SHE,1380 nM
same,Kd,SH2 and PTB domains; protein SHF,1060 nM
same,Kd,SH2 and PTB domains; protein SRC,80 nM
same,Kd,SH2 and PTB domains; protein SYK-NC,240 nM
same,Kd,SH2 and PTB domains; protein TENC1,1150 nM
same,Kd,SH2 and PTB domains; protein TNS3,1890 nM
same,Kd,SH2 and PTB domains; protein VAV1,370 nM
same,Kd,SH2 and PTB domains; protein VAV2,470 nM
same,Kd,SH2 and PTB domains; protein VAV3,960 nM
same,Kd,SH2 and PTB domains; protein YES1,22 nM
